The source of these data is patent US12281102B2, “Inhibitors of APOL1 and methods of using same” (Vertex Pharmaceuticals Incorporated, priority 2020, dated 2025).

Structures are written as SMILES.

This assay deals with T1, G1 APOL1 (Homo sapiens, UniProt O14791, I384M/S342G).
T1 construct: expressed in transfected cells
T1 sequence (O14791 28-398 S342G/I384M): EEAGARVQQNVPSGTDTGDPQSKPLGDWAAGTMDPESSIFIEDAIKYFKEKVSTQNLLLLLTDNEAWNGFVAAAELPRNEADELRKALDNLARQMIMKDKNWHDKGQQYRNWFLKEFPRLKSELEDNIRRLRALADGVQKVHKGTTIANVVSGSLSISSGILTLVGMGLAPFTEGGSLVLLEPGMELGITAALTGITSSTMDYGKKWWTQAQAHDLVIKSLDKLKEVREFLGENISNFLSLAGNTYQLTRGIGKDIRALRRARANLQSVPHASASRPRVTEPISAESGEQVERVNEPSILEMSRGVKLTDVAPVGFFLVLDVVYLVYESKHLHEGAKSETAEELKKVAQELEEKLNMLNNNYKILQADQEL
Kind of assay: Acute APOL1 Thallium Assay with inducible stable clones of HEK 293 cells. It counts as cell-based. Particulars: HEK 293 T-Rex inducible stable clone expressing G1 APOL1; read-out: Thallium Assay (IC50). The method in brief:
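APOL1 pore function was measured as thallium influx, detected by a Tl+-sensitive fluorescent dye loaded as AM ester, on a FLIPR Tetra after Tl+ addition. Cells were HEK T-Rex G1 APOL1 clone DC3.25, 26,000 per well, induced with tetracycline at plating in Opti-MEM assay medium.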

In general, IC50 refers to the midpoint of a concentration-inhibition curve. `O=C(Cn1cnnc1)NC[C@H]1C[C@@H](c2c(-c3ccc(F)cc3)[nH]c3c(F)cc(F)cc32)C1` [Compound 307]: the IC50 is greater than 1000 nM.
On to `O=C1CC(C(=O)N[C@H]2C[C@H](c3c(-c4ccc(F)cc4)[nH]c4c(F)cc(F)cc43)C2)C(=O)N1` (some centres unmarked) [Compound 128], for which the IC50 was less than 250 nM.
With `Fc1ccc(-c2[nH]c3c(F)cc(F)cc3c2[C@H]2C[C@H](CNc3nnc(C(F)(F)F)s3)C2)cc1` [Compound 423, N-(((1r,3r)-3-(5,7-difluoro-2-(4-fluorophenyl)-1H-indol-3-yl)cyclobutyl)methyl)-5-(trifluoromethyl)-1,3,4-thiadiazol-2-amine] the figure was greater than 1000 nM; with `CNC1(C(=O)N[C@H]2C[C@H](c3c(-c4ccc(F)cc4)[nH]c4c(F)cc(F)cc43)C2)CC1` [Compound 141], 250 to 1000 nM.
As for `Cc1cc(-c2[nH]c3c(F)cc(F)cc3c2C2CC(N)C2)ccc1F` (mixture of isomers) [Compound 11, 3-[5,7-difluoro-2-(4-fluoro-3-methyl-phenyl)-1H-indol-3-yl]cyclobutanamine], the figure is 250 to 1000 nM.
With `C[C@H](O)[C@H](CO)NS(=O)(=O)NC[C@H]1C[C@H](c2c(-c3ccc(F)cc3)[nH]c3c(F)cc(F)cc32)C1` [Compound 360] the figure was greater than 1000 nM; with `C[C@H](O)C(=O)NC[C@H]1C[C@@H](c2c(-c3ccc(F)cc3)[nH]c3c(F)cc(F)cc32)C1` [Compound 213], 250 to 1000 nM; with `CC1(C)CCC(C(=O)N[C@H]2C[C@H](c3c(-c4ccc(F)cc4)[nH]c4c(F)cc(F)cc43)C2)N1` (some centres unmarked) [Compound 127], greater than 1000 nM.
For the compound `O=C(N1CC(c2c(-c3ccc(F)cc3)[nH]c3c(F)cc(F)cc23)C1)C1(O)CC1` [Compound 442, (3-(5,7-difluoro-2-(4-fluorophenyl)-1H-indol-3-yl)azetidin-1-yl)(1-hydroxycyclopropyl)methanone], the IC50 was in the range of 250 to 1000 nM.
With `CC(=O)Nc1ccn(C2CC(c3c(-c4ccc(F)cc4)[nH]c4c(F)cc(F)cc34)C2)n1` (centres unmarked) [Compound 19, N-[1-[3-[5,7-difluoro-2-(4-fluorophenyl)-1H-indol-3-yl]cyclobutyl]pyrazol-3-yl]acetamide] the figure was greater than 1000 nM; with `CC[C@@H](NC(=O)OC(C)(C)C)C(=O)NC[C@H]1C[C@H](c2c(-c3ccc(F)cc3)[nH]c3c(F)cc(F)cc32)C1` [Compound 331], greater than 1000 nM.
As for `O=C(NC[C@H]1C[C@H](c2c(-c3ccc(F)cc3)[nH]c3c(F)cc(F)cc32)C1)C1COC1` [Compound 202], the figure is less than 250 nM.
As for `O=S(=O)(N[C@H]1C[C@@H](c2c(-c3ccc(F)cc3)[nH]c3c(F)cc(F)cc32)C1)c1cn[nH]c1` [Compound 84], the figure is greater than 1000 nM.
For the compound `O=S(=O)(NCCc1c[nH]cn1)NC[C@H]1C[C@H](c2c(-c3ccc(F)cc3)[nH]c3c(F)cc(F)cc32)C1` [Compound 359], the IC50 is greater than 1000 nM.
With `O=C1CCC(C(=O)N[C@H]2C[C@H](c3c(-c4ccc(F)cc4)[nH]c4c(F)cc(F)cc43)C2)CN1` (some centres unmarked) [Compound 90] the figure was greater than 1000 nM.
Consider `Nc1nonc1C(=O)NC[C@H]1C[C@H](c2c(-c3ccc(F)cc3)[nH]c3c(F)cc(F)cc32)C1` [Compound 329], for which the IC50 is greater than 1000 nM.
With `N#CCS(=O)(=O)NC[C@H]1C[C@H](c2c(-c3ccc(F)cc3)[nH]c3c(F)cc(F)cc32)C1` [Compound 414] the figure was 250 to 1000 nM; with `O=C(CCN1CCCCC1)N[C@H]1C[C@H](c2c(-c3ccc(F)cc3)[nH]c3c(F)cc(F)cc32)C1` [Compound 124], greater than 1000 nM; with `O=C(CN1CCCC1)NC[C@H]1C[C@@H](c2c(-c3ccc(F)cc3)[nH]c3c(F)cc(F)cc32)C1` [Compound 327], greater than 1000 nM.
As for `O=C(NC[C@H]1C[C@@H](c2c(-c3ccc(F)cc3)[nH]c3c(F)cc(F)cc32)C1)c1cn[nH]c1` [Compound 317], the figure is greater than 1000 nM.
Take `CC(F)(F)C(=O)NC[C@H]1C[C@@H](c2c(-c3ccc(F)cc3)[nH]c3c(F)cc(F)cc32)C1` [Compound 266]: the IC50 is greater than 1000 nM.
With `CC(=O)N1CC[C@@H](C(=O)NC[C@H]2C[C@H](c3c(-c4ccc(F)cc4)[nH]c4c(F)cc(F)cc43)C2)C1` [Compound 256] the figure was greater than 1000 nM; with `O=C(CO)N[C@H]1C[C@@H](c2c(-c3ccc(F)cc3)[nH]c3c(F)cc(F)cc32)C1` [Compound 29, N-((1s,3s)-3-(5,7-difluoro-2-(4-fluorophenyl)-1H-indol-3-yl)cyclobutyl)-2-hydroxyacetamide], 250 to 1000 nM.
With `NCC1CC(c2c(-c3ccc(F)cc3)[nH]c3c(F)cc(C(F)(F)F)cc23)C1` (centres unmarked) [Compound 178] the figure was 250 to 1000 nM.
As for `O=S(=O)(N[C@H]1C[C@@H](c2c(-c3ccc(F)cc3)[nH]c3c(F)cc(F)cc32)C1)C1CCOCC1` [Compound 86], the figure is greater than 1000 nM; as for `CS(=O)(=O)CCCC(=O)N[C@H]1C[C@H](c2c(-c3ccc(F)cc3)[nH]c3c(F)cc(F)cc32)C1` [Compound 99], greater than 1000 nM; as for `NC(=O)C(=O)NC[C@H]1C[C@H](c2c(-c3ccc(F)cc3)[nH]c3c(F)cc(F)cc32)C1` [Compound 451], 250 to 1000 nM.
For `Cn1nccc1CC(=O)N[C@H]1C[C@H](c2c(-c3ccc(F)cc3)[nH]c3c(F)cc(F)cc32)C1` [Compound 115], the IC50 is greater than 1000 nM.
As for `O=C(N[C@H]1C[C@@H](c2c(-c3ccc(F)cc3)[nH]c3c(F)cc(F)cc32)C1)OCc1ccccc1` [Compound 27, benzyl((1s,3s)-3-(5,7-difluoro-2-(4-fluorophenyl)-1H-indol-3-yl)cyclobutyl)carbamate], the figure is greater than 1000 nM; as for `O=C(CC1(O)CCCCC1)N[C@H]1C[C@@H](c2c(-c3ccc(F)cc3)[nH]c3c(F)cc(F)cc32)C1` [Compound 47], greater than 1000 nM.
In the case of `O=C(CO)N[C@H]1C[C@H](c2c(-c3ccc(F)cc3)[nH]c3c(F)cc(F)cc32)C1` [Compound 136], the IC50 was less than 250 nM.
As for `NC1CC(c2c(-c3ccc(F)cc3)[nH]c3c(F)cc(C(F)(F)F)cc23)C1` (mixture of isomers) [Compound 1, 3-[7-fluoro-2-(4-fluorophenyl)-5-(trifluoromethyl)-1H-indol-3-yl]cyclobutanamine], the figure is greater than 1000 nM.
With `CN(C)CCC(=O)N[C@H]1C[C@@H](c2c(-c3ccc(F)cc3)[nH]c3c(F)cc(F)cc32)C1` [Compound 59] the figure was greater than 1000 nM; with `CC(=O)N[C@@H](C)C(=O)NC[C@H]1C[C@H](c2c(-c3ccc(F)cc3)[nH]c3c(F)cc(F)cc32)C1` [Compound 208], 250 to 1000 nM; with `N#CCC(=O)N[C@H]1C[C@H](c2c(-c3ccc(F)cc3)[nH]c3c(F)cc(F)cc32)C1` [Compound 129], less than 250 nM.
As for `CC(NS(C)(=O)=O)C(=O)N[C@H]1C[C@@H](c2c(-c3ccc(F)cc3)[nH]c3c(F)cc(F)cc32)C1` (mixture of isomers) [Compound 55], the figure is greater than 1000 nM.
For `CC(=O)N[C@H](C)C(=O)NC[C@H]1C[C@H](c2c(-c3ccc(F)cc3)[nH]c3c(F)cc(F)cc32)C1` [Compound 204], the IC50 is less than 250 nM.
With `CN1CCC(CC(=O)N[C@H]2C[C@@H](c3c(-c4ccc(F)cc4)[nH]c4c(F)cc(F)cc43)C2)C1` (some centres unmarked) [Compound 45] the figure was greater than 1000 nM; with `N#CCC(=O)N[C@H]1C[C@@H](c2c(-c3ccc(F)cc3)[nH]c3c(F)cc(F)cc32)C1` [Compound 67], greater than 1000 nM; with `O=C1C[C@@H](C(=O)NC[C@H]2C[C@H](c3c(-c4ccc(F)cc4)[nH]c4c(F)cc(F)cc43)C2)N1` [Compound 218], 250 to 1000 nM.
As for `CC1(NCC2CC(c3c(-c4ccc(F)cc4)[nH]c4c(F)cc(F)cc34)C2)COC1` (centres unmarked) [Compound 404], the figure is greater than 1000 nM; as for `O=C1CC[C@H](C(=O)NC[C@H]2C[C@H](c3c(-c4ccc(F)cc4)[nH]c4c(F)cc(F)cc43)C2)N1` [Compound 268], greater than 1000 nM.
As for `Cn1nccc1CC(=O)NC[C@H]1C[C@@H](c2c(-c3ccc(F)cc3)[nH]c3c(F)cc(F)cc32)C1` [Compound 322], the figure is greater than 1000 nM; as for `O=S(=O)(NC[C@H]1C[C@H](c2c(-c3ccc(F)cc3)[nH]c3c(F)cc(F)cc32)C1)NC1(CO)CCC1` [Compound 355], 250 to 1000 nM; as for `CC(C)(C)OC(=O)NCCNCC1CC(c2c(-c3ccc(F)cc3)[nH]c3c(F)cc(F)cc23)C1` (centres unmarked) [Compound 401], greater than 1000 nM.
For the compound `Cc1cccc(-c2[nH]c3c(F)cc(F)cc3c2C2CC(N)C2)c1` (mixture of isomers) [Compound 5, 3-[5,7-difluoro-2-(m-tolyl)-1H-indol-3-yl]cyclobutanamine], the IC50 is 250 to 1000 nM.
As for `CC(C)(C)OC(=O)N1C[C@@H](O)C[C@H]1C(=O)NC[C@H]1C[C@H](c2c(-c3ccc(F)cc3)[nH]c3c(F)cc(F)cc32)C1` [Compound 252], the figure is greater than 1000 nM; as for `C[C@H](NC(=O)OC(C)(C)C)C(=O)NC[C@H]1C[C@H](c2c(-c3ccc(F)cc3)[nH]c3c(F)cc(F)cc32)C1` [Compound 227], greater than 1000 nM.
In the case of `Cn1cnc(CC(=O)N[C@H]2C[C@H](c3c(-c4ccc(F)cc4)[nH]c4c(F)cc(F)cc43)C2)c1` [Compound 143], the IC50 was in the range of 250 to 1000 nM.
With `CC(C)(C)OC(=O)NCC(=O)N[C@H]1C[C@@H](c2c(-c3ccc(F)cc3)[nH]c3c(F)cc(F)cc32)C1` [Compound 78] the figure was greater than 1000 nM.
